These results are taken from patent US20140220680A1, “XENO-FREE AND A FEEDER FREE SELF-RENEWAL EXTRACELLULAR MATRIX FOR LONG-TERM MAINTENANCE OF UNDIFFERENTIATED HUMAN PLURIPOTENT STEM CELLS AND METHOD OF SYNTHESIZING THE SAME” (ROYAN RESEARCH, priority 2013, published 2014).

The target of assay [1] is Rho-associated Coiled Kinase (ROCK). Conditions: stated with the concentration used; no test described; cited from earlier work.
Assay [2] has as its system Royan H5 hESCs. Nature of the assay: Plating efficiency (PE) of hESC clumps on coated plates, day 7. Type of assay: cell-based, human. The method, then: The Matrigel (MG) was used as a positive control in all experiments. In the first phase, with respect to table 1, the Royan H5 cell line was cultured in CM coated plates (six-well, TPP, 92006). The CM was prepared by either 24 h or 72 h incubation of neurobasal medium (Invitrogen, 21103049) supplemented with L-Gln, β-ME, NEAAs and ITS on human dermal fibroblast (HDFs) feeder layers. The HDFs were inactivated by mitomycin C for 2 h. The mitomycin C was used with a concentration of 10 μg/ml (Sigma-Aldrich, M0503). The feeder cells were cultured at high densities and at low densities in 25 cm^2 T flasks (TPP, 90025) in 4 ml of conditioned medium (160 μl/cm^2). The high density comprised of 50000 cells/cm^2 and the low density comprised of 5000 cells/cm^2. The plates were exposed to CM for either 5 min or 150 min while coating. […]
The plating efficiency (PE) and grading morphology were conducted in nine replications. […] Results were expressed as mean±standard deviation (SD). […] The PE (based on the ratio of undifferentiated […] colonies formed per initially seeded hESCs and hiPSCs clumps) was calculated under phase contrast inverted microscope (CKX 41, Olympus). The cloning efficiency (based on the ratio of ALP-positive colonies formed per initially seeded hESCs and hiPSCs single cells) was calculated by ImageJ software version 1.4. […]

In the case of Y-27632 dihydrochloride monohydrate, the EC50 in assay [1] is 800 nM. This substance also showed a plating efficiency increase in assay [2] (ROCK inhibitor in MG compared to ROCK inhibitor in culture medium only) of 1.5 to 2 fold. For the same substance, the “plating and cloning efficiency” value in assay [2] (ROCKi added to ECM (MG) vs added to medium) is “increased plating and cloning efficiency”.
